Experimental data published in patent publication US20250026753A1, “FUSED TRIAZINONE DERIVATIVES AND METHODS OF USING THE SAME” (Rgenta Therapeutics, Inc., priority 2021, published 2025).
Counter-ions that a name gives are not always drawn.

Assays:
[1] = test system: K562; assay: Cell proliferation assay (CellTiterGlo, 72 hour incubation), K562; type: cell-based; settings: Homo sapiens, K562 cells, inhibition of cell proliferation, CellTiterGlo luminescence
Method: (§1) Various cancer cell lines including K562 and COLO201, were treated with the compounds of the present disclosure to assess their effect on inhibiting cell proliferation.
(§2) For compound preparation, test compounds were diluted in duplicates from 10 mM stocks in 11-points 1:3 serial dilutions in DMSO. Then 125 nL test compounds at the serial dilutions were dispensed into 384-well assay plate using Echo dispenser. Staurosporine at 1 mM stock (5 μM final concentration) and DMSO (0.500 final concentration) were used as the positive and negative controls respectively.
(§3) To prepare cell lines, each frozen cell line stock was resuspended and grown in proper growth medium to a density of 40,000 cells/mL. Then 25 μL of cell suspension were dispensed into the assay plate to give seed cell density at 1,000 cells/well, compounds at 50 μM top concentration with 11-point serial dilutions, and 0.5% o DMSO final concentration. Assay plates were then centrifuged at 300 rpm for 1 minute and then incubated at 37° C., 9500 humidity, 500 CO2 for 72 hours. After the 72 hour incubation, the assay plate and its contents were equilibrated at room temperature for approximately 30 minutes. 25 μL of CellTiterGlo reagent was added to the assay plate and mixed for two minutes on an orbital shaker. Then after 10 minutes of incubation of assay plate at from temperature, the luminescence (RLU) signals in each well were recorded using Envision plate reader, then converted to percentage inhibition values using the signals in staurosporine and DMSO treated wells as the references. IC50 values were determined by curve fitting in Levenberg-Marquardt algorithm.

[2] = test system: COLO201; assay: Cell proliferation assay (CellTiterGlo, 72 hour incubation), COLO201; type: cell-based; settings: Homo sapiens, COLO 201, COLO201 cells, inhibition of cell proliferation, CellTiterGlo luminescence
Method: as §1, §2, §3

`Cc1cn2cc(-c3nc(=O)n4cc(N5CCN[C@@H](C)C5)cc(F)c4n3)cc(F)c2n1` [Compound 116, (S)-9-fluoro-2-(8-fluoro-2-methylimidazo[1,2-a]pyridine-6-yl)-7-(3-methylpiperazin-1-yl)-4H-pyrido[1,2-a][1,3,5]triazin-4-one] gave an IC50 [1] of under 1 µM and an IC50 [2] of under 1 µM.
`Cc1cc2cc(-c3nc(=O)n4cc(N5CCNC(C)(C)C5)cc(F)c4n3)cc(C)n2n1` [Compound 135, 7-(3,3-dimethylpiperazin-1-yl)-2-(2,7-dimethylpyrazolo[1,5-a]pyridin-5-yl)-9-fluoro-4H-pyrido[1,2-a][1,3,5]triazin-4-one] gave an IC50 [1] of 1 to 10 µM.
With `Cc1cn2cc(-c3nc(=O)n4cc(N5CCN[C@H](C)C5)ccc4n3)cc(F)c2n1` [Compound 102, (R)-2-(8-fluoro-2-methylimidazo[1,2-a]pyridin-6-yl)-7-(3-methylpiperazin-1-yl)-4H-pyrido[1,2-a][1,3,5]triazin-4-one formic acid] the IC50 [1] was under 1 µM and the IC50 [2] was 1 to 10 µM.
In the case of `Cc1cn2cc(-c3nc(=O)n4cc(N5CCNCC5)ccc4n3)cc(C)c2n1` [Compound 126, 2-2,8-dimethylimidazo[1,2-a]pyridin-6-yl-7-(piperazin-1-yl)-4H-pyrido[1,2-a][1,3,5]triazin-4-one hydrochloride], the IC50 [1] is reported as 1 to 10 µM.
Compound `Cc1cn2cc(-c3nc(=O)n4cc(N5CC6(CNC6)C5)ccc4n3)cc(F)c2n1` [Compound 127, 7-2,6-diazaspiro[3.3]heptan-2-yl-2-8-fluoro-2-methylimidazo[1,2-a]pyridin-6-yl-4H-pyrido[1,2-a][1,3,5]triazin-4-one trifluoroacetic acid] has an IC50 [1] of 1 to 10 µM and an IC50 [2] of at least 10 µM.
Compound `Cc1cn2cc(-c3nc(=O)n4cc(N5CCNCC5)cc(F)c4n3)cc(F)c2n1` [Compound 110, 9-fluoro-2-(8-fluoro-2-methylimidazo[1,2-a]pyridin-6-yl)-7-(piperazin-1-yl)-4H-pyrido[1,2-a][1,3,5]triazin-4-one hydrochloride] has an IC50 [1] of under 1 µM and an IC50 [2] of under 1 µM.
In the case of `Cc1cn2cc(-c3nc(=O)n4cc(N5CCN[C@@H](C)C5)cc(F)c4n3)cc(C)c2n1` [Compound 121, (S)-2-(2,8-dimethylimidazo[1,2-a]pyridin-6-yl)-9-fluoro-7-(3-methylpiperazin-1-yl)-4H-pyrido[1,2-a][1,3,5]triazin-4-one hydrochloride], the IC50 [1] is reported as under 1 µM and the IC50 [2] is reported as under 1 µM.
In the case of `Cc1cn2cc(-c3nc(=O)n4cc(C5=CCNCC5)ccc4n3)cc(F)c2n1` [Compound 111, 2-(8-fluoro-2-methylimidazo[1,2-a]pyridin-6-yl)-7-(1,2,3,6-tetrahydropyridin-4-yl)-4H-pyrido[1,2-a][1,3,5]triazin-4-one hydrochloride], the IC50 [1] is reported as 1 to 10 µM and the IC50 [2] is reported as under 1 µM.
For `Cc1cn2cc(-c3nc(=O)n4cc(N5CCN(C)CC5)ccc4n3)cc(F)c2n1` [Compound 103, 2-(8-fluoro-2-methylimidazo[1,2-a]pyridin-6-yl)-7-(4-methylpiperazin-1-yl)-4H-pyrido[1,2-a][1,3,5]triazin-4-one], the IC50 [1] was 1 to 10 µM and the IC50 [2] was 1 to 10 µM.
`Cc1cn2cc(-c3nc(=O)n4cc(N5CC6CCCC(C5)N6)ccc4n3)cc(F)c2n1` [Compound 118, 7-(3,9-diazabicyclo[3.3.1]nonan-3-yl)-2-(8-fluoro-2-methylimidazo[1,2-a]pyridin-6-yl)-4H-pyrido[1,2-a][1,3,5]triazin-4-one hydrochloride] showed an IC50 [1] of under 1 µM and an IC50 [2] of 1 to 10 µM.
Compound `COc1cc(N2CCNCC2)cn2c(=O)nc(-c3cc(F)c4nc(C)cn4c3)nc12` [Compound 114, 2-(8-fluoro-2-methylimidazo[1,2-a]pyridin-6-yl)-9-methoxy-7-(piperazin-1-yl)-4H-pyrido[1,2-a][1,3,5]triazin-4-one hydrochloride] has an IC50 [1] of 1 to 10 µM and an IC50 [2] of 1 to 10 µM.
Work on `Cc1cn2cc(-c3nc(=O)n4cc(N5CCN[C@@H](C)C5)ccc4n3)cc(F)c2n1` [Compound 101] yielded an IC50 [1] of under 1 µM and an IC50 [2] of under 1 µM.
For `Cc1cn2cc(-c3nc(=O)n4cc(N5CCN(C)[C@@H](C)C5)cc(C)c4n3)cc(F)c2n1` [Compound 124, (S)-7-(3,4-dimethylpiperazin-1-yl)-2-(8-fluoro-2-methylimidazo[1,2-a]pyridin-6-yl)-9-methyl-4H-pyrido[1,2-a][1,3,5]triazin-4-one], the IC50 [1] was 1 to 10 µM.
With `Cc1cn2cc(-c3nc(=O)n4cc(N5CCNCC5)ccc4n3)cc(F)c2n1` [Compound 100, 2-(8-fluoro-2-methylimidazo[1,2-a]pyridin-6-yl)-7-(piperazin-1-yl)-4H-pyrido[1,2-a][1,3,5]triazin-4-one hydrochloride] the IC50 [2] was under 1 µM.
Compound `CC[C@H]1CN(c2cc(F)c3nc(-c4cc(F)c5nc(C)cn5c4)nc(=O)n3c2)CCN1` [Compound 128, 7-[(3S)-3-ethylpiperazin-1-yl]-9-fluoro-2-{8-fluoro-2-methylimidazo[1,2-a]pyridin-6-yl}-4H-pyrido[1,2-a][1,3,5]triazin-4-one] has an IC50 [1] of under 1 µM.
`Cc1cn2cc(-c3nc(=O)n4cc(N5CCNC6(CC6)C5)cc(C)c4n3)cc(F)c2n1` [Compound 132, 7-{4,7-diazaspiro[2.5]octan-7-yl}-2-{8-fluoro-2-methylimidazo[1,2-a]pyridin-6-yl}-9-methyl-4H-pyrido[1,2-a][1,3,5]triazin-4-one] gave an IC50 [1] of 1 to 10 µM.
`Cc1cn2cc(-c3nc(=O)n4cc(C5CCNC5)ccc4n3)cc(F)c2n1` (stereo not drawn) [Compound 112, 2-(8-fluoro-2-methylimidazo[1,2-a]pyridin-6-yl)-7-(pyrrolidin-3-yl)-4H-pyrido[1,2-a][1,3,5]triazin-4-one hydrochloride] showed an IC50 [1] of 1 to 10 µM.
Compound `Cc1cn2cc(-c3nc(=O)n4cc(N5CCNC(C)(C)C5)cc(C)c4n3)cc(F)c2n1` [Compound 125, 7-(3,3-dimethylpiperazin-1-yl)-2-(8-fluoro-2-methylimidazo [1,2-a]pyridin-6-yl)-9-methyl-4H-pyrido[1,2-a][1,3,5]triazin-4-one hydrochloride] has an IC50 [1] of 1 to 10 µM.
`Cc1cn2cc(-c3nc(=O)n4cc(N5CCN[C@@H](C)C5)cc(C)c4n3)cc(C)c2n1` [Compound 123, (S)-2-(2,8-dimethylimidazo[1,2-a]pyridin-6-yl)-9-methyl-7-(3-methylpiperazin-1-yl)-4H-pyrido[1,2-a][1,3,5]triazin-4-one hydrochloride] gave an IC50 [1] of 1 to 10 µM.
Work on `Cc1cn2cc(-c3nc(=O)n4cc(N5CCNC(C)(C)C5)cc(F)c4n3)cc(F)c2n1` [Compound 130, 7-(3,3-dimethylpiperazin-1-yl)-9-fluoro-2-{8-fluoro-2-methylimidazo[1,2-a]pyridin-6-yl}-4H-pyrido[1,2-a][1,3,5]triazin-4-one] yielded an IC50 [1] of under 1 µM.
`Cc1cc2cc(-c3nc(=O)n4cc(N5CCN[C@@H](C)C5)ccc4n3)cc(C)n2n1` [Compound 134, (S)-2-(2,7-dimethylpyrazolo[1,5-a]pyridin-5-yl)-7-(3-methylpiperazin-1-yl)-4H-pyrido[1,2-a][1,3,5]triazin-4-one] showed an IC50 [1] of 1 to 10 µM.
With `Cc1cn2cc(-c3nc(=O)n4cc(N5CCNCC5)ccc4n3)cc(F)c2n1` [Compound 99, 2-{8-fluoro-2-methylimidazo[1,2-a]pyridin-6-yl}-7-(piperazin-1-yl)-4H-pyrido[1,2-a][1,3,5]triazin-4-one] the IC50 [1] was under 1 µM.
Work on `Cc1cc2cc(-c3nc(=O)n4cc(N5CCN[C@@H](C)C5)cc(C)c4n3)cc(C)n2n1` [Compound 129, 2-{2,7-dimethylpyrazolo[1,5-a]pyridin-5-yl}-9-methyl-7-[(3S)-3-methylpiperazin-1-yl]-4H-pyrido[1,2-a][1,3,5]triazin-4-one] yielded an IC50 [1] of 1 to 10 µM.
